Patent US11459309B2, “Crystalline forms of a lysyl oxidase-like 2 inhibitor and methods of making” (PHARMAKEA, INC., priority 2016, dated 2022)

What was measured:
[1] = Storage of solid forms at 40° C./75% RH or 25° C./97% RH; assay type: physicochemical; conditions: for 7 days storage @ 40° C./75% RH: resulting form (XRPD): 7 days / one week, hydrochloride salt
Protocol: All retrieved solids from the crystallisation attempts were stored at 40° C. and 75% RH.

[2] = as above; assay type: physicochemical; conditions: for 7 days storage @ 40° C./75% RH: appearance: table prints 40° C./5% RH, hydrochloride salt
[3] = Form conversion on heating (thermal analysis / XRPD); assay type: physicochemical; conditions: heated above 150° C.
Protocol: DSC data were collected on a TA Instruments Q2000 equipped with a 50 position auto-sampler. The calibration for thermal capacity was carried out using sapphire and the calibration for energy and temperature was carried out using certified indium. Typically 0.5-3 mg of each sample, in a pin-holed aluminium pan, was heated at 10° C./min from 25° C. to 300° C. A purge of dry nitrogen at 50 ml/min was maintained over the sample.

[4] = Protocol: After each addition of solvent, the system was shaken gently for 10 minutes at 50° C. and then allowed to stand at room temperature for 5 min before the addition of a new aliquot of solvent. After the assessment was completed, any suspensions obtained were matured and clear solutions were cooled at 5° C.
[5] = Stability studies (accelerated, ICH); assay type: physicochemical
Protocol: The compounds were assayed according to appearance, purity, related Substances, chiral purity, moisture, DSC, and XRPD

[6] = Solubility and metastable limit curves (clear point / cloud point, Crystal16); assay type: physicochemical
Protocol: The samples were then cooled from 70 back to −8° C. at the same rate. The clear point upon heating (at 100% transmission) and the cloud point upon re-cooling (<100% transmission) were recorded using the Crystal16 instrument and the data is shown in Table 17. XRPD analysis was performed on all solids obtained post cooling.

Forced degradation study = assay type: physicochemical
[7] = Gravimetric Vapor Sorption (GVS); assay type: physicochemical; conditions: 0 to 90% RH; methanesulfonate salt
From the text: Gravimetric Vapor Sorption (GVS) isotherms were obtained using an SMS DVS Intrinsic moisture sorption analyser, controlled by DVS Intrinsic Control software v1.0.1.2 (or v 1.0.1.3), over a range of 0 to 90% relative humidity (RH).

[8] = Organic (qualitative) solubility of Form 1 of Compound 2; assay type: physicochemical
[9] = Aqueous solubility of Form 1 of Compound 2; assay type: physicochemical

Cl.NCc1cc(Oc2cccc(C(=O)N3C[C@@H](O)[C@H](F)C3)c2)nc(C(F)(F)F)c1 [Form 2 of Compound 1, (R,R)-trans-(3-((4-(aminomethyl)-6-(trifluoromethyl)pyridin-2-yl)oxy)phenyl)(3-fluoro-4-hydroxypyrrolidin-1-yl)methanone, hydrochloride salt]
behaviour on storage conditions ([1]; 1 week, 40° C. and 75% RH): remained unchanged | 7 days storage @ 40° C./75% RH: resulting form (XRPD) [1]: Form 2 | stability over time ([1]; thermally stable, over time): converts over time to a waxy solid | 7 days storage @ 40° C./75% RH: appearance [2]: Waxy/glassy

CS(=O)(=O)O.NCc1cc(Oc2cccc(C(=O)N3C[C@@H](O)[C@H](F)C3)c2)nc(C(F)(F)F)c1 [Form 2 of Compound 2, (R,R)-trans-(3-((4-(aminomethyl)-6-(trifluoromethyl)pyridin-2-yl)oxy)phenyl)(3-fluoro-4-hydroxypyrrolidin-1-yl)methanone, methanesulfonate salt]
form change after GVS analysis and storage ([1]; after GVS analysis and 7 days at 40° C./75% RH): phase transformation towards Form 1 | form change in humidity ([1]; humidity): converts to Form 1 | form change after storage ([2]; 7 days at 25° C./97% RH): change also occurs | form change on heating [3]: can transform to Form 1

Cl.NCc1cc(Oc2cccc(C(=O)N3C[C@@H](O)[C@H](F)C3)c2)nc(C(F)(F)F)c1 [Form 1 of Compound 1, (R,R)-trans-(3-((4-(aminomethyl)-6-(trifluoromethyl)pyridin-2-yl)oxy)phenyl)(3-fluoro-4-hydroxypyrrolidin-1-yl)methanone, hydrochloride salt]
hygroscopicity [1]: hygroscopic solid | 7 days storage @ 40° C./75% RH: resulting form (XRPD) [1]: transforms to Form 2 | behaviour on storage at 40° C. and 75% RH ([1]; after 24 hours): deliquescing | 7 days storage @ 40° C./75% RH: appearance [2]: Waxy/glassy

Cl.NCc1cc(Oc2cccc(C(=O)N3C[C@@H](O)[C@H](F)C3)c2)nc(C(F)(F)F)c1 [Amorphous Compound 1, (R,R)-trans-(3-((4-(aminomethyl)-6-(trifluoromethyl)pyridin-2-yl)oxy)phenyl)(3-fluoro-4-hydroxypyrrolidin-1-yl)methanone, hydrochloride salt]
Solubility [4]: 200-100 | 7 days storage @ 40° C./75% RH: appearance [2]: Glassy

CS(=O)(=O)O.NCc1cc(Oc2cccc(C(=O)N3C[C@@H](O)[C@H](F)C3)c2)nc(C(F)(F)F)c1 [Compound 2, (R,R)-trans-(3-((4-(aminomethyl)-6-(trifluoromethyl)pyridin-2-yl)oxy)phenyl)(3-fluoro-4-hydroxypyrrolidin-1-yl)methanone, methanesulfonate salt]
ICH stability, 1 month data ([5]; long-term (25° C./60%) and accelerated (40° C./75%) conditions of 1-year and 2-year ICH studies): within limits for all attributes tested | Clear Point Temperature ([6]; 5 mg in 1 mL IPA:water 95:5): 6.9 °C | Clear Point Temperature ([6]; 10 mg in 1 mL IPA:water 95:5): 20.3 °C | Clear Point Temperature ([6]; 20 mg in 1 mL IPA:water 95:5): 37.2 °C | Clear Point Temperature ([6]; 30 mg in 1 mL IPA:water 95:5): 48.5 °C | Cloud Point Temperature ([6]; 30 mg in 1 mL IPA:water 95:5): −7.8 °C | Clear Point Temperature ([6]; 40 mg in 1 mL IPA:water 95:5): 55.8 °C | Cloud Point Temperature ([6]; 40 mg in 1 mL IPA:water 95:5): −1.8 °C | Clear Point Temperature ([6]; 60 mg in 1 mL IPA:water 95:5): 64 °C | Cloud Point Temperature ([6]; 60 mg in 1 mL IPA:water 95:5): 14.5 °C | Clear Point Temperature ([6]; 70 mg in 1 mL IPA:water 95:5): 68.6 °C | Cloud Point Temperature ([6]; 70 mg in 1 mL IPA:water 95:5): 24.7 °C | forced degradation, solid state, heat (Forced degradation study; solid, 100° C., 24 hours): stable | forced degradation, solid state, light (Forced degradation study; solid, max 365 nm, 24 hours): stable | forced degradation, solution state, heat (Forced degradation study; solution, 50° C. for 24 hours): stable

CS(=O)(=O)O.NCc1cc(Oc2cccc(C(=O)N3C[C@@H](O)[C@H](F)C3)c2)nc(C(F)(F)F)c1 [Form 1 of Compound 2, (R,R)-trans-(3-((4-(aminomethyl)-6-(trifluoromethyl)pyridin-2-yl)oxy)phenyl)(3-fluoro-4-hydroxypyrrolidin-1-yl)methanone, methanesulfonate salt]
XRPD after the GVS analysis [7]: Unchanged | Polymorph stability on storage ([1]; 7 days at 40° C./75% RH and 25° C./97% RH): stable for 7 days | Organic Solubility: Qualitative Solubility ([8]; isopropyl acetate, isopropanol, methyl-ethyl ketone, acetone, ethanol, methyl-t-butyl ether, 1,4 dioxane, toluene, tetrahydrofuran, dichloromethane, acetonitrile): ≤10 mg/mL | Organic Solubility: Qualitative Solubility ([8]; water, dimethyl sulfoxide): >200 mg/mL | Aqueous Solubility ([9]; pH 2): >107 mg/mL | Aqueous Solubility ([9]; pH 7.4): >107 mg/mL | Aqueous Solubility ([9]; pH 10): >85 mg/mL

Cl.NCc1cc(Oc2cccc(C(=O)N3C[C@@H](O)[C@H](F)C3)c2)nc(C(F)(F)F)c1 [Compound 1, (R,R)-trans-(3-((4-(aminomethyl)-6-(trifluoromethyl)pyridin-2-yl)oxy)phenyl)(3-fluoro-4-hydroxypyrrolidin-1-yl)methanone, hydrochloride salt]
3 month accelerated stability ([5]; 40° C./75% RH, 3 month): no significant changes in purity or absorption of moisture
